Assay results reported in patent US10011570B2, “Nucleic acid binding dyes with improved safety” (Biotium, Inc., priority 2013, dated 2018).

Legend:
[1] = California Title 22 toxicity test for hazardous waste characterization; format: in vivo, Pimephales promelas; settings: Pimephales promelas (fathead minnow), in vivo; 0.65 uM dye solution in water tested at 750, 500 and 250 mg/L, Fathead minnow; read-out: median lethal concentration (LC50)
Method: (§1) Stock solutions of Dye No. 11 and Dye No. 4 at 0.65 uM each in water were submitted to Nautilus Environmental (San Diego, Calif.) for California Title 22 toxicity testing for hazardous waste characterization. The solutions were tested at 750, 500, and 250 mg/L plus lab control in Pimephales promelas (Fathead minnow) in two replicates of 10 fish each according to the California Department of Fish and Game 1988 Acute Procedures.

[2] = system: Pimephales promelas (Fathead minnow); assay: as above; format: in vivo; settings: 0.65 uM dye solution in water, aquatic life
Method: as §1

HeLa cells = assay: Live cell staining (cell membrane permeability, confocal microscopy); format: cell-based, human; settings: for cell staining after 5 minutes incubation / cell staining after 30 minutes incubation: HeLa cells, 37 C, dyes at 0.65 uM, Sybr Safe at 1×; for cellular staining of live cells (cell membrane permeability): normal working concentration used in gel staining, time not stated (FIG. 12)
Method: Dye No. 4, Dye No. […] and SYBR Safe are tested for their cell membrane permeability. HeLa cells were incubated with 1× Sybr Safe, 0.65 uM Dye No 4 and 0.65 uM Dye No. 11 in cell culture medium at 37 C. Hoechst 33342 (1 ug/mL) was included to stain DNA with blue fluorescence. Cells were imaged after 5 minutes and 30 minutes incubation on the appropriate fluorescence channel (FITC for Sybr Safe and Dye No. 4, and Cy3 for Dye No. […]) on a Zeiss LSM 700 confocal microscope. […] Hoechst staining for the same microscopic field is shown below each image (D-F, J-L).

[3] = system: 1 kb DNA ladder in 1% agarose gel; assay: Post staining of agarose gels; settings: 0.65 uM dye in water, 30 minutes, 1 kb DNA ladder 200-25 ng per lane
Method: Two-fold dilutions of 1 kb DNA ladder (Biotium, 200 ng-25 ng) or low-molecular weight DNA ladder (NEB, 50-12.5 ng/lane) were separated on 1% agarose/1×TBE gels in 1× TBE at 110 V for 90 minutes. Gels were post-stained with dyes at indicated concentrations in 50 mL staining solution with rocking for 30 minutes at room temperature, protected from light. The staining solutions were prepared by adding a dye stock solution in DMSO to water. […] In particular, dyes of the invention can readily penetrate dense polyacrylamide gels. […] Use of low dye concentration in the staining, coupled with the dyes' low cell membrane permeability (See below), makes the dyes safer to handle. Compound 25 of U.S. Pat. No. 7,446,202 is an asymmetric cyanine dye comprising a negatively charged substituent. The dye is described to be a sensitive dsDNA binding dye useful for selective dsDNA quantitation in solution. In this experiment, this dye is compared with the asymmetric cyanine dye Dye No. 4 of the present invention in detecting dsDNA in agarose gel. 1 kb DNA ladder (Biotium) was loaded on a 1% agarose/1×TBE gel at 200, 100, 50, or 25 ng per lane in duplicate and separated by electrophoresis at 100V. […]

Calf Thymus DNA; RNA = assay: Nucleic acid detection in solution (fluorescence titration); format: binding; settings: 2 uM Dye No. 4 or 1.3 uM Compound 25 in TE buffer, fluorescence microplate reader
Method: Compound 25 of U.S. Pat. No. 7,446,202 and Dye No. 4 were compared in nucleic acid detection in solution. Calf Thymus DNA (Sigma) was used to titrate 2 uM Dye No. 4 or 1.3 uM Compound 25 of U.S. Pat. No. 7,446,202 in TE buffer. The fluorescence of the solution was measured on a fluorescence microplate reader (200 uL volume/well and 5 minutes incubation time). Same optical setting was used for both dyes as the two dyes have nearly identical spectral profile.

[4] = system: 1 kb DNA ladder in 1% agarose TBE gels; assay: Prestaining of agarose gels; settings: dye mixed with DNA in loading buffer, compared with propidium iodide
Method: Two-fold dilutions of 1 kb DNA ladder (200 ng-25 ng per lane) were mixed with propidium iodide (PI) or Dye No, 10 in DNA loading buffer at the final concentrations indicated and separated on 1% agarose TBE gels containing no additional DNA dye.

For C[n+]1c(C=C2C=CN(CCCSCC(N)C(=O)[O-])c3ccccc32)sc2ccccc21.I (stereo not shown) [Dye No. 4], the LC50 [1] was over 750 µg/mL, the “classification under CCR Title 22 regulations” value [2] was “non-hazardous” and the “cell staining after 5 minutes incubation” value (HeLa cells) was “no staining was detectable”. The “cell staining after 30 minutes incubation” value (HeLa cells) was “no staining was detectable”, the “cellular staining of live cells (cell membrane permeability)” value (HeLa cells) was “did not produce any cellular staining at all” and the “signal of stained gel compared with Compound 25” value [3] was “significantly higher signal”. For the same compound, the “nucleic acid binding profile (dsDNA versus RNA)” value (Calf Thymus DNA; RNA) was “binds to both dsDNA and RNA”.
With CC[N+](C)(CC)CCC[n+]1c(-c2ccc(S(=O)(=O)[O-])cc2)c2cc(N)ccc2c2ccc(N)cc21.[I-] [Dye No. 10] the “brightness in prestaining of gels” value [4] was “as bright as PI”.
In the case of C[N+](C)(C)CCC[n+]1c(-c2ccc(S(=O)(=O)[O-])cc2)c2cc(N)ccc2c2ccc(N)cc21.[I-] [Dye No. 11], the LC50 [1] is reported as over 750 µg/mL, the “classification under CCR Title 22 regulations” value [2] is reported as “non-hazardous” and the “cell staining after 5 minutes incubation” value (HeLa cells) is reported as “no staining was detectable”. The “cell staining after 30 minutes incubation” value (HeLa cells) was “no staining was detectable” and the “cellular staining of live cells (cell membrane permeability)” value (HeLa cells) was “did not produce any cellular staining at all”.
